We go through five molecules from ChEMBL document CHEMBL1152913, “Discovery of 4-azaindoles as novel inhibitors of c-Met kinase” (Bioorg Med Chem Lett, 2009).

Data set [1] has as its target T1, Hepatocyte growth factor receptor (Homo sapiens, UniProt P08581).
Description: (§1) Inhibition of human recombinant His-tagged c-Met by TR-FRET assay
For data set [2], the target named is T1, Hepatocyte growth factor receptor. The experiment in a line: Inhibition of human recombinant His-tagged c-Met at 20 uM by TR-FRET assay. In general terms: Time-resolved FRET reads energy transfer from a long-lived donor to a nearby acceptor.
A further data set relates to Hepatocyte. The experiment in a line: Clearance rate in hepatocytes. In kind it is ADME, cell-based, Liver.
The target in data set [3] is Macrophage-stimulating protein receptor (Homo sapiens) (UniProt Q04912). Briefly: Inhibition of Ron assessed as residual activity at 20 uM.
Data set [4] addresses High affinity nerve growth factor receptor (Homo sapiens) (UniProt P04629). Briefly: Inhibition of TrkA assessed as residual activity at 20 uM.
For data set [5], the target named is Vascular endothelial growth factor receptor 2 (Homo sapiens) (UniProt P35968). Briefly: Inhibition of KDR assessed as residual activity at 20 uM.
The target in data set [6] is Mitogen-activated protein kinase 3 (Homo sapiens) (UniProt P27361). The experiment in a line: Inhibition of ERK1 assessed as residual activity at 20 uM.
The target in data set [7] is Mitogen-activated protein kinase 1 (Homo sapiens) (UniProt P28482). The experiment in a line: Inhibition of ERK2 phosphorylation in human MKN45 cells after 1 hr by Western blot analysis. In kind it is cell-based. Particulars: MKN-45. For orientation: A western blot detects proteins with antibodies after separation by electrophoresis.
The target in data set [8] is T2, Tyrosine-protein kinase Mer (Homo sapiens) (UniProt Q12866).
T2 sequence (whole entry): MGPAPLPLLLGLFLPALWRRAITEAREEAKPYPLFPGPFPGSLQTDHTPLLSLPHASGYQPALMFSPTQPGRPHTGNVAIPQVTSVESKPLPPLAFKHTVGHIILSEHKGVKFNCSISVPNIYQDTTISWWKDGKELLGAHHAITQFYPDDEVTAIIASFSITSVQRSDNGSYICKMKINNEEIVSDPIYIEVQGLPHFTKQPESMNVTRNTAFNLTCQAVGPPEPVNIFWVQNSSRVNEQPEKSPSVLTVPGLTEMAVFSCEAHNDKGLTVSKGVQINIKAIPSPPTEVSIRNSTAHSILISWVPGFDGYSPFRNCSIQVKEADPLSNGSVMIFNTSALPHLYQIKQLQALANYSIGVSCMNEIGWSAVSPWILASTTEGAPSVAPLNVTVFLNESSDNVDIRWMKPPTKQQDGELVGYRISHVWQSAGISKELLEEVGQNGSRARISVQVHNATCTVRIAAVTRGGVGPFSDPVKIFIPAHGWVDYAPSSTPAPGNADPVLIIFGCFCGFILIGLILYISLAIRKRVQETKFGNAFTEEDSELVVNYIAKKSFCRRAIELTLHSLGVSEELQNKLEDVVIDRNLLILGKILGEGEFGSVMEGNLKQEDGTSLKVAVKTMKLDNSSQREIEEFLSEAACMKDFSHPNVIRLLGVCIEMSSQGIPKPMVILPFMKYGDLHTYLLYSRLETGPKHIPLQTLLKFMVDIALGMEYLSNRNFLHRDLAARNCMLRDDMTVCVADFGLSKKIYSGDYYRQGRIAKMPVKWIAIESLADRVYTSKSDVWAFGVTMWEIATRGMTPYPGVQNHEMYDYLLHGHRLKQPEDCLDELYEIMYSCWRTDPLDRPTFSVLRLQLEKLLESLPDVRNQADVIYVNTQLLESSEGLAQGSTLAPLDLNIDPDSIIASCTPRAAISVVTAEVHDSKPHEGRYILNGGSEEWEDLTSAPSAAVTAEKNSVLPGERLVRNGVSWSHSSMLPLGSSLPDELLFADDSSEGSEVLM
The experiment in a line: Inhibition of Mer assessed as residual activity at 20 uM.

In data set [9] the target is T1, Hepatocyte growth factor receptor. This is another data set of the same source.
Description: as §1
For data set [10] the target is unchanged. Briefly: Inhibition of c-Met phosphorylation in human MKN45 cells after 1 hr. The format is cell-based, MKN-45.
In data set [11] the target is Mitogen-activated protein kinase 1 (Homo sapiens) (UniProt P28482). The experiment in a line: Inhibition of ERK2 assessed as residual activity at 20 uM.
For data set [12], the target named is RAC-alpha serine/threonine-protein kinase (Homo sapiens) (UniProt P31749). Briefly: Inhibition of AKT assessed as residual activity at 20 uM.
The target of data set [13] is Mitogen-activated protein kinase 3 (Homo sapiens) (UniProt P27361). The experiment in a line: Inhibition of ERK1 phosphorylation in human MKN45 cells after 1 hr by Western blot analysis. The format is cell-based. As to conditions: MKN-45.
Data set [14] deals with T1, Hepatocyte growth factor receptor. Briefly: Inhibition of c-Met phosphorylation in human A549 cells after 1 hr. In kind it is cell-based.
Data set [15] concerns the target RAC-alpha serine/threonine-protein kinase (Homo sapiens) (UniProt P31749). Briefly: Inhibition of AKT phosphorylation in human MKN45 cells after 1 hr by Western blot analysis. In kind it is cell-based. Particulars: MKN-45.

Calls of active or inactive are those of the source. The calls are words filed in the database; no cut-off is given here.

With `c1ccc(Cn2ccc3ncccc32)cc1`, in [1], the IC50 (usually the midpoint of a concentration-inhibition curve) is “Inactive”.

Take `O=[N+]([O-])c1ccc(S(=O)(=O)n2ccc3ncccc32)cc1`: the inhibition (usually the share of the control response that was lost under treatment) in data set [2] amounted to 16%.

The molecule `O=S(=O)(c1c(Cl)nc2sccn12)n1ccc2ncc(N3CCNCC3)cc21` displayed a CL with Hepatocyte of 1 s⁻¹.

Regarding `O=S(=O)(c1c(Cl)nc2sccn12)n1ccc2ncc(-c3cnn(C4CCNCC4)c3)cc21`, the CL with Hepatocyte turned out to be 0.3 s⁻¹.

On to `O=S(=O)(c1cccc2nonc12)n1ccc2ncc(-c3cnn(C4CCNCC4)c3)cc21`, for which the Activity in data set [3] came to 29%; in data set [4], 18%; in data set [5] it was 3%; in data set [6] it was 88%; in [8] it was 19%; in data set [12], 88%. Moreover, the inhibition result in data set [7], in [13] and in data set [15] was “Active” throughout. The IC50 in data set [9] is 9 nM; in data set [10], 200 nM; in [14], 130 nM. In addition, in [11], the inhibition result is “inactive”.
